Reference: article PMC5034043 (The Journal of Biological Chemistry, 2016)
Where two headings read alike, the source gives them in different places.

Tested on: T1, synaptosomal proteome
T1 construct: from tissue; host or cells: brain synaptosomes of male C57/B6 mice
Type: binding, mouse
Procedure: Synaptosomes were resuspended to 1 mg of protein/ml in HEPES buffer medium (in mM: 140 NaCl, 5 KCl, 5 NaHCO3, 1.2 NaH2PO4, 1 MgCl2, 10 glucose, and 10 HEPES (pH 7.4)). […] The samples were allowed to equilibrate for 5 min before being transferred to a parafilm-sealed 1-mm path length quartz cuvette. The sample was then irradiated for 20 min at a peak bandwidth of 350 nm (Rayonet RPR-3500 lamp) ∼6 cm from the light source. Non-irradiated samples were left in the dark at ambient temperature (22–25 °C) for 20 min. All remaining procedures were conducted with restricted light exposure.
To 750 μg of photolabeled or control synaptosome samples, 40 μl of 10% SDS and 2 μl of 5 mM DTT in water were added. Samples were then vortexed, heated for 10 min at 65 °C, and then briefly cooled. Final concentrations of 150 μM azide-biotin (Click Chemistry Tools), 2 mM tris(3-hydroxypropyltriazolylmethyl)amine (Sigma), 1 mM ascorbic acid (Sigma), and 1 mM CuSO4·5H2O (Sigma) were added to each sample and vortexed vigorously. The samples were left in the dark at ambient temperature (22–25 °C) for 1 h with mild agitation. Directly to each sample 4× volume chilled methanol, 1.5× chilled chloroform, and 3× chilled double distilled H2O were added. Samples were vortexed vigorously and centrifuged at 1,400 × g for 30 min at 4 °C. Both liquid layers were carefully removed, and the protein pellet was washed with 2 ml of 1:1 (v/v) chilled methanol/chloroform. Samples were centrifuged at 3,500 × g for 30 min at 4 °C. Protein pellets were briefly air-dried before further processing.
750 μg of biotin-conjugated protein sample was resuspended in 500 μl of 25 mM NH4HCO3 and 6 M urea in water. Next, 150 μl of 5% Triton X-100 in water, 50 μl of 10% SDS in water, and 1.5 μl of 0.5 M DTT were added. The samples were heated for 15 min at 65 °C. After briefly cooling, 14 μl of 0.5 M iodoacetamide in water was added, and the sample was left in the dark for 45 min. […] The supernatant was diluted to 4 ml with PBS, and 2 ml of PBS containing 100 μl of 50% streptavidin-agarose resin (Thermo Scientific) was added. Biotinylated proteins within the sample were captured over resin overnight at 4 °C with mild agitation. The resin was first washed with 6 ml of 1% SDS in PBS, and then 7 ml of 0.1 M urea in PBS followed by 10 ml of PBS. The resin underwent a final wash with 0.9 ml of 50 mM Tris-HCl and 1 mM CaCl2 in water (pH 8.0) and then resuspended in 200 μl of 50 mM Tris-HCl, 1 mM CaCl2 in water (pH 8.0), and 2 μg of porcine sequencing grade trypsin (Promega). Samples were digested overnight at 37 °C. Samples were then centrifuged at 2,000 × g for 4 min, and digest supernatant was decanted. Beads were washed in 100 μl of PBS centrifuged at 5,200 × g for 5 min, and the wash was combined with the digest supernatant. To the combined sample, trifluoroacetic acid (TFA) was added to 0.4% (v/v) or until pH <2. The sample was desalted with Oasis C18 10-mg columns (Waters) as described previously ([66]). The eluted sample was dried by speed vac and resuspended in 0.1 M HEPES buffer (pH 8.5). […] Appropriate corresponding TMTsixplex^TM-labeled samples were pooled and dried by speed vac. The combined samples were resuspended in 0.5% acetic acid in water and pH-corrected with acetic acid until pH was <2. 40 μg of protein was desalted with C18 stage tips prepared in-house and dried by speed vac.
Samples were resuspended in 10 mM KH2PO4 (pH 2.6), 30% acetonitrile (v/v) in water, and fractionated by off-line strong cation exchange chromatography prior to mass spectrometry (MS) analysis similar to as reported previously ([66]). The full synaptosome proteome control was prepared similarly without TMTsixplex^TM labeling.
All TMT samples were analyzed with three-stage mass spectrometry (MS3) TMTsixplex^TM quantification workflow as described previously ([34]).

[1] = protein A2AGI3 Neuroligin-3 (Nlgn3)
[2] = protein A2AWI7 Endophilin-B2 (Sh3glb2)
[3] = protein D3Z5T2 Armadillo repeat-containing protein 10 (Armc10)
[4] = protein E9Q3V6 Septin-2 (Sept2)
[5] = protein F7C846 Metaxin-1 (Mtx1)
[6] = protein F8WGD9 1-acyl-sn-glycerol-3-phosphate acyltransferase epsilon (Agpat5)
[7] = protein G3UYZ1 Immunoglobulin superfamily member 8 (Igsf8)
[8] = protein G5E829 Plasma membrane calcium-transporting ATPase 1 (Atp2b1)
[9] = protein O09111 NADH dehydrogenase [ubiquinone] 1 beta subcomplex subunit 11, mitochondrial (Ndufb11)
[10] = protein O35114 Lysosome membrane protein 2 (Scarb2)
[11] = protein O35526 Syntaxin-1A (Stx1a)
[12] = protein O35874 Neutral amino acid transporter A (Slc1a4)

With C#CCOCc1ccc(C2(C(F)(F)F)N=N2)cc1O [AziPm-click (1), 2-((prop-2-yn-1-yloxy)methyl)-5-(3-(trifluoromethyl)-3H-diazirin-3-yl)phenol] the “Log2( Mean 'UV/ No UV')” value (B1AU25 Aifm1) was 4.01, the “TMT Ratio Mean 'UV/ No UV'” value (B1AU25 Aifm1) was 16.13 and the “Log2( Mean 'UV/ No UV')” value (O35633-2 Slc32a1) was 4.34. The “Log2( Mean 'UV/ No UV')” value (O35678 Mgll) was 4.63, the “TMT Ratio Mean 'UV/ No UV'” value (O35678 Mgll) was 24.71 and the “Log2( Mean 'UV/ No UV')” value (P07724 Alb) was 4.39. The “TMT Ratio Mean 'UV/ No UV'” value (P07724 Alb) was 20.95, the “Log2( Mean 'UV/ No UV')” value (P08226 Apoe) was 3.80 and the “TMT Ratio Mean 'UV/ No UV'” value (P08226 Apoe) was 13.94. For the same compound, the “Log2( Mean 'UV/ No UV')” value (P17665 Cox7c) was 4.31, the “TMT Ratio Mean 'UV/ No UV'” value (P17665 Cox7c) was 19.82 and the “Log2( Mean 'UV/ No UV')” value (P19157 Gstp1) was 3.61. For the same compound, the “TMT Ratio Mean 'UV/ No UV'” value (P19157 Gstp1) was 12.21, the “Log2( Mean 'UV/ No UV')” value (P23242 Gja1) was 3.58 and the “TMT Ratio Mean 'UV/ No UV'” value (P23242 Gja1) was 11.95. The “Log2( Mean 'UV/ No UV')” value (P31648 Slc6a1) was 4.60, the “TMT Ratio Mean 'UV/ No UV'” value (P31648 Slc6a1) was 24.21 and the “Log2( Mean 'UV/ No UV')” value (P35279 Rab6a) was 3.67. For the same compound, the “TMT Ratio Mean 'UV/ No UV'” value (P35279 Rab6a) was 12.71, the “Log2( Mean 'UV/ No UV')” value (P40237 Cd82) was 3.95 and the “TMT Ratio Mean 'UV/ No UV'” value (P40237 Cd82) was 15.49. The “Log2( Mean 'UV/ No UV')” value (P42125 Eci1) was 4.01, the “TMT Ratio Mean 'UV/ No UV'” value (P42125 Eci1) was 16.13 and the “Log2( Mean 'UV/ No UV')” value (P51150 Rab7a) was 3.54. For the same compound, the “TMT Ratio Mean 'UV/ No UV'” value (P51150 Rab7a) was 11.65, the “Log2( Mean 'UV/ No UV')” value (P60879-2 Snap25) was 4.57 and the “Log2( Mean 'UV/ No UV')” value (P61294 Rab6b) was 3.78. The “TMT Ratio Mean 'UV/ No UV'” value (P61294 Rab6b) was 13.75, the “Log2( Mean 'UV/ No UV')” value (P61620 Sec61a1) was 4.06 and the “TMT Ratio Mean 'UV/ No UV'” value (P61620 Sec61a1) was 16.63. For the same compound, the “Log2( Mean 'UV/ No UV')” value (P63011 Rab3a) was 3.83, the “TMT Ratio Mean 'UV/ No UV'” value (P63011 Rab3a) was 14.19 and the “Log2( Mean 'UV/ No UV')” value (P63037 Dnaja1) was 3.64. The “TMT Ratio Mean 'UV/ No UV'” value (P63037 Dnaja1) was 12.46, the “Log2( Mean 'UV/ No UV')” value (P63213 Gng2) was 3.65 and the “TMT Ratio Mean 'UV/ No UV'” value (P63213 Gng2) was 12.51. For the same compound, the “Log2( Mean 'UV/ No UV')” value (Q5ICG5 Acsl6) was 3.88, the “TMT Ratio Mean 'UV/ No UV'” value (Q5ICG5 Acsl6) was 14.71 and the “Log2( Mean 'UV/ No UV')” value (Q5SW88 Rab1) was 3.58. The “TMT Ratio Mean 'UV/ No UV'” value (Q5SW88 Rab1) was 11.95, the “Log2( Mean 'UV/ No UV')” value (Q8BXV2 Bri3bp) was 3.89 and the “TMT Ratio Mean 'UV/ No UV'” value (Q8BXV2 Bri3bp) was 14.84. The “Log2( Mean 'UV/ No UV')” value (Q8C3X2 Ccdc90b) was 4.00, the “TMT Ratio Mean 'UV/ No UV'” value (Q8C3X2 Ccdc90b) was 16.04 and the “Log2( Mean 'UV/ No UV')” value (Q8K4X7 Agpat4) was 4.25. For the same compound, the “TMT Ratio Mean 'UV/ No UV'” value (Q8K4X7 Agpat4) was 18.96, the “Log2( Mean 'UV/ No UV')” value (Q8R5J9 Arl6ip5) was 4.56 and the “TMT Ratio Mean 'UV/ No UV'” value (Q8R5J9 Arl6ip5) was 23.65. The “Log2( Mean 'UV/ No UV')” value (Q9CXJ4 Abcb8) was 3.93, the “TMT Ratio Mean 'UV/ No UV'” value (Q9CXJ4 Abcb8) was 15.28 and the “Log2( Mean 'UV/ No UV')” value (Q9CZS1 Aldh1b1) was 4.40. For the same compound, the “TMT Ratio Mean 'UV/ No UV'” value (Q9CZS1 Aldh1b1) was 21.11, the “Log2( Mean 'UV/ No UV')” value (Q9CZT8 Rab3b) was 3.73 and the “TMT Ratio Mean 'UV/ No UV'” value (Q9CZT8 Rab3b) was 13.26. For the same compound, the “Log2( Mean 'UV/ No UV')” value (Q9D5T0 Atad1) was 3.65, the “TMT Ratio Mean 'UV/ No UV'” value (Q9D5T0 Atad1) was 12.57 and the “Log2( Mean 'UV/ No UV')” value (Q9EP69 Sacm1l) was 4.04. For the same compound, the “TMT Ratio Mean 'UV/ No UV'” value (Q9EP69 Sacm1l) was 16.45, the “Log2( Mean 'UV/ No UV')” value (Q9ER00 Stx12) was 3.85 and the “TMT Ratio Mean 'UV/ No UV'” value (Q9ER00 Stx12) was 14.40. For the same compound, the “Log2( Mean 'UV/ No UV')” value (Q9Z2I0 Letm1) was 4.32, the “TMT Ratio Mean 'UV/ No UV'” value (Q9Z2I0 Letm1) was 19.93 and the “Log2( Mean 'UV/ No UV')” value (Q80ZW2 Them6) was 4.50. The “TMT Ratio Mean 'UV/ No UV'” value (Q80ZW2 Them6) was 22.62, the “Log2( Mean 'UV/ No UV')” value (Q99JY8 Ppap2b) was 4.16 and the “TMT Ratio Mean 'UV/ No UV'” value (Q99JY8 Ppap2b) was 17.86. For the same compound, the “Log2( Mean 'UV/ No UV')” value (Q00915 Rbp1) was 4.46, the “TMT Ratio Mean 'UV/ No UV'” value (Q00915 Rbp1) was 22.07 and the “Log2( Mean 'UV/ No UV')” value (Q60771 Cldn11) was 4.48. For the same compound, the “TMT Ratio Mean 'UV/ No UV'” value (Q60771 Cldn11) was 22.33, the “Log2( Mean 'UV/ No UV')” value [1] was 3.89 and the “TMT Ratio Mean 'UV/ No UV'” value [1] was 14.80. For the same compound, the “Log2( Mean 'UV/ No UV')” value [2] was 3.55, the “TMT Ratio Mean 'UV/ No UV'” value [2] was 11.67 and the “Log2( Mean 'UV/ No UV')” value [3] was 3.94. For the same compound, the “TMT Ratio Mean 'UV/ No UV'” value [3] was 15.34, the “Log2( Mean 'UV/ No UV')” value [4] was 4.02 and the “TMT Ratio Mean 'UV/ No UV'” value [4] was 16.25. For the same compound, the “Log2( Mean 'UV/ No UV')” value [5] was 4.31, the “TMT Ratio Mean 'UV/ No UV'” value [5] was 19.87 and the “Log2( Mean 'UV/ No UV')” value [6] was 4.62. For the same compound, the “TMT Ratio Mean 'UV/ No UV'” value [6] was 24.62, the “Log2( Mean 'UV/ No UV')” value [7] was 3.89 and the “TMT Ratio Mean 'UV/ No UV'” value [7] was 14.81. For the same compound, the “Log2( Mean 'UV/ No UV')” value [8] was 3.59, the “TMT Ratio Mean 'UV/ No UV'” value [8] was 12.05 and the “Log2( Mean 'UV/ No UV')” value [9] was 3.68. For the same compound, the “TMT Ratio Mean 'UV/ No UV'” value [9] was 12.78, the “Log2( Mean 'UV/ No UV')” value [10] was 4.27 and the “TMT Ratio Mean 'UV/ No UV'” value [10] was 19.35. The “Log2( Mean 'UV/ No UV')” value [11] was 3.50, the “TMT Ratio Mean 'UV/ No UV'” value [11] was 11.31 and the “Log2( Mean 'UV/ No UV')” value [12] was 4.57. For the same compound, the “TMT Ratio Mean 'UV/ No UV'” value [12] was 23.78 and the “Log2( Mean 'UV/ No UV')” value (protein O35963 Ras-related protein Rab-33B (Rab33b)) was 4.02.
